Consider 22 compounds from PubChem BioAssay (NCI).

Among the test systems are SR leukemia; EKVX NSCLC; KM12 colon; SN12C renal; IGROV1 ovarian; M14 melanoma; PC-3 prostate; SNB-19 CNS; COLO 205 colon.
Holding throughout (assay): NCI tumour cell line growth inhibition, 48 h

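Where inhibition never reached the appropriate level, the endpoint shown equals the highest concentration tested. Otherwise, values were interpolated linearly from a five-concentration, 48-hour dose response in 96-well plates. Here, GI50 denotes the concentration required for 50% inhibition of growth. At the TGI there is no net growth.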 Some results are limits rather than exact numbers.

As for `COc1ccc(NC(=O)CSC(=O)c2ccccc2)c(SCCSSCCSc2cc(OC)ccc2NC(=O)CSC(=O)c2ccccc2)c1`, the TGI in the test with SR leukemia, with EKVX NSCLC, in the test with KM12 colon, in the test on SN12C renal, in the test with IGROV1 ovarian and in the test on M14 melanoma was over 100 µM each time. Moreover, the values for the TGI in the test with PC-3 prostate, in the test with SNB-19 CNS and with COLO 205 colon were over 100 µM, over 100 µM and 24.2 µM, respectively.
Turning to `CC1(C)CCC2=C(O1)c1ccccc1C(=Nc1ccc([N+](=O)[O-])cc1)C2=O`, the TGI with SR leukemia is 37.7 µM; in the test on EKVX NSCLC, 32.7 µM; in the test with KM12 colon, 28.2 µM; in the test with SN12C renal, 29.3 µM; in the test on IGROV1 ovarian, over 100 µM; in the test with M14 melanoma, 20.5 µM. Moreover, the TGI with PC-3 prostate was 31.5 µM; in the test on SNB-19 CNS, 32.5 µM; with COLO 205 colon, 30.4 µM. The GI50 in the test on SN12C renal was 15.9 µM; with COLO 205 colon, 16.8 µM.
As to `CCCCCCCCCCCC(=O)N(CCCCCCCCC)CC(O)C(O)C(OC1OC(CO)C(O)C(O)C1O)C(O)CO` (stereo not given), the TGI worked out at 42.4 µM in the test with SR leukemia; 31.5 µM in the test with EKVX NSCLC; 31.2 µM in the test on KM12 colon; 36.1 µM in the test on SN12C renal; 33.6 µM with IGROV1 ovarian; 36.9 µM with M14 melanoma. Besides, the TGI in the test with PC-3 prostate was determined as 39.2 µM; in the test on SNB-19 CNS, 40.4 µM; in the test on COLO 205 colon, 36.9 µM.
`N=C(N)SCc1nc(-c2ccc(Cl)cc2)no1`: the TGI was 21.9 µM in the test on SR leukemia; 89.4 µM in the test with EKVX NSCLC; over 100 µM with KM12 colon; 37.5 µM in the test on SN12C renal; over 100 µM in the test with IGROV1 ovarian; 45.6 µM with M14 melanoma. The TGI in the test with PC-3 prostate is 37.5 µM; in the test on SNB-19 CNS it was over 100 µM; with COLO 205 colon, 38.3 µM.
For `CCN(CC)/N=C\c1c2ccccc2cc2ccccc12`, the TGI with SR leukemia is over 100 µM; in the test on EKVX NSCLC, over 100 µM; in the test with KM12 colon, over 100 µM; in the test on SN12C renal, over 100 µM; with IGROV1 ovarian it was over 100 µM; in the test on M14 melanoma it was 51.6 µM. Also, the TGI with PC-3 prostate was over 100 µM; in the test on SNB-19 CNS it was over 100 µM; with COLO 205 colon, 53.5 µM.
For the compound `N#CCCN(CCCCN(CCC#N)C(=O)Nc1ccccc1)C(=O)Nc1ccccc1`, the TGI with SR leukemia, with EKVX NSCLC, in the test with KM12 colon, in the test on SN12C renal, in the test with IGROV1 ovarian and with M14 melanoma was over 100 µM throughout. For the same compound, the TGI in the test with PC-3 prostate, in the test with SNB-19 CNS and in the test with COLO 205 colon was over 100 µM in each case.
For the compound `COc1cc2nc(-c3cccs3)nc(Nc3ccccc3C(=O)NN)c2cc1OC`, the TGI in the test with SR leukemia, with EKVX NSCLC, with KM12 colon, in the test on SN12C renal, in the test on IGROV1 ovarian and in the test with M14 melanoma was over 100 µM each time. The TGI in the test with PC-3 prostate, in the test on SNB-19 CNS and in the test with COLO 205 colon was over 100 µM each time.
Consider `O=c1c2cccnc2oc2c(Cl)cc(-c3nn[nH]n3)cc12`, for which the TGI with SR leukemia, in the test with EKVX NSCLC, in the test on KM12 colon, with SN12C renal, in the test with IGROV1 ovarian and in the test with M14 melanoma was over 100 µM throughout. Besides, the TGI in the test with PC-3 prostate, in the test on SNB-19 CNS and in the test with COLO 205 colon was over 100 µM throughout.
As to `CCCCCCc1ccc(CCCCCCCC(=O)O)o1`, the TGI in the test with SR leukemia, with EKVX NSCLC, with KM12 colon, with SN12C renal, with IGROV1 ovarian and in the test with M14 melanoma was over 100 µM each time. The TGI in the test with PC-3 prostate, with SNB-19 CNS and in the test on COLO 205 colon was over 100 µM throughout.
Consider `Clc1nc2nc(N3CCNCC3)nc(N3CCCC3)c2[nH]1`, for which the TGI with SR leukemia turned out to be 38.7 µM; in the test on EKVX NSCLC, 31.8 µM; in the test with KM12 colon, 35.9 µM; in the test on SN12C renal, 34.4 µM; in the test with IGROV1 ovarian, 32.7 µM; in the test with M14 melanoma, 34.6 µM. Moreover, the TGI with PC-3 prostate is 33.9 µM; in the test on SNB-19 CNS it was 31.8 µM; in the test on COLO 205 colon it was 31 µM.
Consider `CCCCCc1cc2cc3c(c(O)c2c(=O)[nH]1)C1(CCC3)C(=O)c2c(O)ccc(O)c2C1=O`, for which the TGI in the test on SR leukemia, in the test with EKVX NSCLC, in the test on KM12 colon, in the test with SN12C renal, in the test with IGROV1 ovarian and with M14 melanoma was over 100 µM in each case. The TGI with PC-3 prostate, in the test on SNB-19 CNS and with COLO 205 colon was over 100 µM throughout.
Turning to `Oc1ccc(-c2nc3cc(C(F)(F)F)ccc3s2)cc1`, the TGI in the test on SR leukemia is 35.2 µM; in the test with EKVX NSCLC, 16.9 µM; with KM12 colon, 27.8 µM; in the test with SN12C renal, 32.6 µM; in the test with IGROV1 ovarian, 23.8 µM; in the test with M14 melanoma, 29.2 µM. The TGI is 27.9 µM with PC-3 prostate, 31.4 µM with SNB-19 CNS and 33.1 µM in the test on COLO 205 colon.
`N#Cc1c(/C=C/c2ccccc2)c2c([nH]c1=S)CCCCC2`: the TGI with SR leukemia, with EKVX NSCLC, in the test with KM12 colon, in the test with SN12C renal, with IGROV1 ovarian and with M14 melanoma was over 100 µM in each case. The TGI with PC-3 prostate, in the test on SNB-19 CNS and with COLO 205 colon was over 100 µM in each case.
In the case of `COc1cc(C(c2ccccc2)N2C(=O)CC[C@H]2C(=O)O)cc(OC)c1OC` (stereo not given in full), the TGI in the test on SR leukemia, in the test on EKVX NSCLC, in the test on KM12 colon, in the test on SN12C renal, in the test with IGROV1 ovarian and in the test with M14 melanoma was over 100 µM in each case. The TGI with PC-3 prostate, in the test with SNB-19 CNS and in the test with COLO 205 colon was over 100 µM in each case.
With `COc1cc2nc(-c3cccs3)nc(N3CCN(c4ccccc4)CC3)c2cc1OC`, the TGI in the test on SR leukemia, in the test on EKVX NSCLC, in the test with KM12 colon, with SN12C renal, in the test on IGROV1 ovarian and in the test on M14 melanoma was over 100 µM throughout. The TGI in the test on PC-3 prostate, in the test on SNB-19 CNS and with COLO 205 colon was over 100 µM throughout.
Turning to `O=C1C(c2ccccc2)=C(c2ccccc2)C1(Cl)Cl`, the TGI in the test on SR leukemia came to 4.82 µM; in the test with EKVX NSCLC, 21.7 µM; in the test with KM12 colon, 19.2 µM; with SN12C renal, 11.5 µM; in the test on IGROV1 ovarian, 15.3 µM; in the test on M14 melanoma, 5.9 µM. Further, the TGI in the test on PC-3 prostate was determined as 14.3 µM; with SNB-19 CNS it was 32.9 µM; in the test with COLO 205 colon, 6.4 µM.
Take `C=C(C)C1(Sc2ccc(OC)cc2)CC1`: the TGI is 37.4 µM in the test with SR leukemia; over 100 µM in the test on EKVX NSCLC; over 100 µM in the test on KM12 colon; 35.4 µM in the test on SN12C renal; 98.4 µM with IGROV1 ovarian; over 100 µM with M14 melanoma. In addition, the TGI was over 100 µM in the test with PC-3 prostate, over 100 µM in the test with SNB-19 CNS and 60.1 µM with COLO 205 colon.
In the case of `O=C(CC(=O)N1N=C(c2ccccc2)C(N=Nc2ccc(S(=O)(=O)CCOS(=O)(=O)O)cc2)C1=O)Nc1ccc(Cl)cc1` (stereo not given), the TGI with SR leukemia is over 100 µM; with EKVX NSCLC it was over 100 µM; with KM12 colon it was over 100 µM; in the test on SN12C renal, over 100 µM; in the test on IGROV1 ovarian it was 72.3 µM; in the test with M14 melanoma it was over 100 µM. The TGI in the test on PC-3 prostate, in the test with SNB-19 CNS and in the test on COLO 205 colon was over 100 µM throughout.
In the case of `O=C(CCCCCNC(=O)c1ccc(Cl)cc1)NO`, the TGI was 53.7 µM in the test on SR leukemia; over 100 µM in the test on EKVX NSCLC; over 100 µM in the test with KM12 colon; 24.4 µM in the test on SN12C renal; 25 µM in the test on IGROV1 ovarian; over 100 µM in the test with M14 melanoma. Moreover, the TGI with PC-3 prostate is 9 µM; in the test with SNB-19 CNS, over 100 µM; in the test with COLO 205 colon it was 10.5 µM.
For `CC1(C)CC(=O)c2c(N)n[nH]c2C1`, the TGI with SR leukemia, in the test with EKVX NSCLC, with KM12 colon, with SN12C renal, in the test with IGROV1 ovarian and in the test on M14 melanoma was over 100 µM throughout. In addition, the TGI with PC-3 prostate, in the test with SNB-19 CNS and in the test on COLO 205 colon was over 100 µM throughout.
For the compound `COc1ccc(C2N(c3ccc(C)c(N=C=O)c3)C(=O)N3C(c4ccc(OC)cc4)N(c4ccc(C)c(N=C=O)c4)C(=O)N23)cc1` (stereo not given), the TGI in the test with SR leukemia, in the test with EKVX NSCLC, with KM12 colon, in the test on SN12C renal, in the test on IGROV1 ovarian and with M14 melanoma was over 100 µM throughout. Also, the TGI in the test on PC-3 prostate, with SNB-19 CNS and with COLO 205 colon was over 100 µM each time.
As for `COc1cc(C2c3cccc4cccc(c34)C3CCC(=O)N32)cc(OC)c1O` (stereo not given), the TGI with SR leukemia, in the test on EKVX NSCLC, in the test with KM12 colon, in the test on SN12C renal, in the test with IGROV1 ovarian and in the test with M14 melanoma was over 50 µM throughout. Moreover, the TGI with PC-3 prostate, in the test on SNB-19 CNS and in the test with COLO 205 colon was over 50 µM each time.
